ChEMBL document CHEMBL6134842, “Acetal functionalized iminosugars for targeting β-glucocerebrosidase modulation” (Eur J Med Chem, 2025)
Changes are numbered by the printed parent chain. Active and inactive are the calls of the source. The calls are words filed in the database; no cut-off is given here.

How the values were obtained:
[1] = molecular target: T1, Lysosomal acid glucosylceramidase (Homo sapiens, UniProt P04062); assay: Non-competitive inhibition of lysosomal GCase in human leucocytes using 4-methylumbelliferyl-beta-D-glucopyranoside as substrate incubated for 1 hr by fluorescence based assay; format: cell-based, Leucocyte
T1 sequence (P04062 whole entry): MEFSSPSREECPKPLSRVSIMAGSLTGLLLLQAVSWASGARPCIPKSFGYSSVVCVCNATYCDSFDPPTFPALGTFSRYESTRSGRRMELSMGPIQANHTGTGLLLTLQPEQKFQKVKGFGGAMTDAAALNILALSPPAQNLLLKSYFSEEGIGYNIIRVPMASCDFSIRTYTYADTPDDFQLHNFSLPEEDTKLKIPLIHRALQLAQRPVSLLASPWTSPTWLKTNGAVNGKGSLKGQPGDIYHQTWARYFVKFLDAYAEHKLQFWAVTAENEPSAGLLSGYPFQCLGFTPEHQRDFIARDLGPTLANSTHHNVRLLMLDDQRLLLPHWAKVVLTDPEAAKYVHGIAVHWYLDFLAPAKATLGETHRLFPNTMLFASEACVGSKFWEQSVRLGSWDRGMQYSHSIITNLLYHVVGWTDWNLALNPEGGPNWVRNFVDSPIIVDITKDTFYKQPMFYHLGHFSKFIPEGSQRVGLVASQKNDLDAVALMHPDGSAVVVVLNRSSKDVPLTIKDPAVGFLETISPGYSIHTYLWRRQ

[2] = tested on: Lysosomal acid glucosylceramidase (Homo sapiens), P04062 [UNDEFINED MUTATION]; assay: Modulation of GCase N370S/RecNcil mutant in Gaucher patient-derived human fibroblasts assessed as fold increase in GCase rescue at 100 uM incubated for 4 days by fluorescence based lysed cell assay relative to control; settings: Fibroblast, filed as modulator, time 4.0 day
[3] = molecular target: T2, Lysosomal acid glucosylceramidase (Homo sapiens) (UniProt P04062); assay: Inhibition of lysosomal GCase in human leucocytes using 4-methylumbelliferyl-beta-D-glucopyranoside as substrate at 1 mM measured after 12 hrs by fluorescence based assay relative to control; format: cell-based; settings: Leucocyte
T2 sequence (whole entry): T1 sequence (P04062 whole entry)

[4] = molecular target: T2, Lysosomal acid glucosylceramidase (Homo sapiens); assay: Inhibition of lysosomal GCase in human leucocytes using 4-methylumbelliferyl-beta-D-glucopyranoside as substrate at 1 mM incubated for 1 hr by fluorescence based assay relative to control; format: cell-based; settings: Leucocyte
[5] = Stability of compound at pH 7 assessed as compound remaining measured after 4 days by 1H NMR spectroscopy; format: physicochemical; settings: buffer, time 4 day, read-out: Stability
[6] = molecular target: T2, Lysosomal acid glucosylceramidase (Homo sapiens); assay: Inhibition of lysosomal GCase in human leucocytes using 4-methylumbelliferyl-beta-D-glucopyranoside as substrate at 1 mM measured immediately by fluorescence based assay relative to control; format: cell-based; settings: Leucocyte
[7] = molecular target: T2, Lysosomal acid glucosylceramidase (Homo sapiens); assay: Inhibition of lysosomal GCase in human leucocytes using 4-methylumbelliferyl-beta-D-glucopyranoside as substrate at 1 mM measured 36 hrs by fluorescence based assay relative to control; format: cell-based; settings: Leucocyte
[8] = tested on: T3, Lysosomal acid glucosylceramidase (Homo sapiens), P04062 [L483P]; assay: Modulation of GCase L444P/L444P mutant in Gaucher patient-derived human fibroblasts assessed as fold increase in GCase rescue at 100 uM incubated for 4 days by fluorescence based lysed cell assay relative to control; settings: Fibroblast, filed as modulator, time 4.0 day
T3 sequence (whole entry): T1 sequence (P04062 whole entry) with L483P

[9] = Stability of compound at pH 5.8 assessed as compound remaining measured after 1 hr by 1H NMR spectroscopy; format: physicochemical; settings: buffer, read-out: Stability
[10] = molecular target: T2, Lysosomal acid glucosylceramidase (Homo sapiens); assay: Non-competitive inhibition of lysosomal GCase in human leucocytes using 4-methylumbelliferyl-beta-D-glucopyranoside as substrate assessed as unchanged Km incubated for 1 hr by fluorescence based assay; format: cell-based; settings: Leucocyte
[11] = molecular target: T2, Lysosomal acid glucosylceramidase (Homo sapiens); assay: Inhibition of lysosomal GCase in human leucocytes using 4-methylumbelliferyl-beta-D-glucopyranoside as substrate incubated for 1 hr by Lineweaver-burk plot analysis; format: cell-based; settings: Leucocyte
[12] = Stability of compound at pH 5.8 assessed as compound hydrolysis measured after 6 days by 1H NMR spectroscopy; format: physicochemical; settings: buffer, pH 5.8, 144 h; time 6 day
[13] = molecular target: T2, Lysosomal acid glucosylceramidase (Homo sapiens); assay: Inhibition of lysosomal GCase in human leucocytes using 4-methylumbelliferyl-beta-D-glucopyranoside as substrate at 1 mM measured 24 hrs by fluorescence based assay relative to control; format: cell-based; settings: Leucocyte
[14] = tested on: T3, Lysosomal acid glucosylceramidase (Homo sapiens), P04062 [L483P]; assay: (§1) Modulation of GCase L444P/L444P mutant in Gaucher patient-derived human fibroblasts using 4-methylumbelliferyl beta-D-glucopyranoside as substrate assessed as fold increase in GCase rescue at 30 uM preincubated for 4 days followed by compound washout and substrate addition measured after 2 hrs by fluorescence based intact cell enzyme assay relative to control; settings: Fibroblast, filed as modulator, time 4.0 day
[15] = molecular target: T2, Lysosomal acid glucosylceramidase (Homo sapiens); assay: Non-competitive inhibition of lysosomal GCase in human leucocytes using 4-methylumbelliferyl-beta-D-glucopyranoside as substrate assessed as reduction in apparent Vmax incubated for 1 hr by fluorescence based assay; format: cell-based; settings: Leucocyte
[16] = tested on: Lysosomal acid glucosylceramidase (Homo sapiens), P04062 [UNDEFINED MUTATION]; assay: as §1, with “N370S/RecNcil” for “L444P/L444P”; settings: Fibroblast, filed as modulator, time 4.0 day
[17] = tested on: T3, Lysosomal acid glucosylceramidase (Homo sapiens), P04062 [L483P]; assay: Modulation of GCase L444P/L444P mutant in Gaucher patient-derived human fibroblasts assessed as fold increase in GCase rescue at 50 uM incubated for 4 days by fluorescence based lysed cell assay relative to control; settings: Fibroblast, filed as modulator, time 4.0 day
[18] = tested on: Lysosomal acid glucosylceramidase (Homo sapiens), P04062 [UNDEFINED MUTATION]; assay: as §1, with “N370S/RecNcil” for “L444P/L444P”, “as” for “as fold increase in”, “10 to 100” for “30”, “assay” for “assay relative to control”; settings: Fibroblast, dose 10-100 µM, time 4.0 day
[19] = Antioxidant activity assessed as DPPH radical scavenging activity at 200 umol measured after 10 mins relative to control; format: functional; settings: dose 200.0 µmol
[20] = tested on: Lysosomal acid glucosylceramidase (Homo sapiens), P04062 [UNDEFINED MUTATION]; assay: Modulation of GCase N370S/RecNcil mutant in Gaucher patient-derived human fibroblasts assessed as fold increase in GCase rescue at 10 uM incubated for 4 days by fluorescence based lysed cell assay relative to control; settings: Fibroblast, filed as modulator, time 4.0 day
[21] = Antioxidant activity assessed as DPPH radical scavenging activity at 400 umol measured after 10 mins relative to control; format: functional; settings: dose 400.0 µmol
[22] = tested on: T3, Lysosomal acid glucosylceramidase (Homo sapiens), P04062 [L483P]; assay: Modulation of GCase L444P/L444P mutant in Gaucher patient-derived human fibroblasts assessed as GCase rescue at 10 to 100 uM incubated for 4 days by fluorescence based lysed cell assay; settings: Fibroblast, dose 10-100 µM, time 4.0 day
[23] = tested on: Lysosomal acid glucosylceramidase (Homo sapiens), P04062 [UNDEFINED MUTATION]; assay: Modulation of GCase N370S/RecNcil mutant in Gaucher patient-derived human fibroblasts assessed as GCase rescue at 10 to 100 uM incubated for 4 days by fluorescence based lysed cell assay; settings: Fibroblast, dose 10-100 µM, time 4.0 day
[24] = tested on: Lysosomal acid glucosylceramidase (Homo sapiens), P04062 [UNDEFINED MUTATION]; assay: Modulation of GCase N370S/RecNcil mutant in Gaucher patient-derived human fibroblasts assessed as fold increase in GCase rescue at 20 uM incubated for 4 days by fluorescence based lysed cell assay relative to control; settings: Fibroblast, filed as modulator, time 4.0 day
[25] = tested on: Lysosomal acid glucosylceramidase (Homo sapiens), P04062 [UNDEFINED MUTATION]; assay: Modulation of GCase N370S/RecNcil mutant in Gaucher patient-derived human fibroblasts assessed as fold increase in GCase rescue at 50 uM incubated for 4 days by fluorescence based lysed cell assay relative to control; settings: Fibroblast, filed as modulator, time 4.0 day
[26] = tested on: T3, Lysosomal acid glucosylceramidase (Homo sapiens), P04062 [L483P]; assay: Modulation of GCase L444P/L444P mutant in Gaucher patient-derived human fibroblasts assessed as GCase rescue at 10 uM incubated for 4 days by fluorescence based lysed cell assay; settings: Fibroblast, filed as modulator, time 4.0 day
[27] = Antioxidant activity assessed as inhibition of DPPH radical scavenging activity measured after 10 mins relative to control; format: functional

OC1[C@H](O)CN(CC[C@H]2COC(c3ccc(Br)cc3)O2)C[C@H]1O (some centres not stated)
IC50 [1]: 100 µM | fold change (FC) [2]: 1.83 | inhibition [3]: 77% | inhibition [4]: 75% | remaining at 96 h [5]: > 95% | inhibition [6]: 80% | inhibition [7]: 76% | fold change (FC) [8]: 1.56 | remaining at 1 h [9]: > 95% | inhibition [10]: Active | inhibition [11]: Active; The Secondary Plot Was Concave Upward, Rather Than Linear, Thus Confirming That Inhibitory Effect Arises From The Binding Of More Than One Molecule Of Compound On Enzyme Surface; Not Attributable To A Cooperativity Phenomenon | Stability [12]: Stable | inhibition [13]: 80% | fold change (FC) [14]: 1.26 | inhibition [15]: Active | fold change (FC) [16]: 1.46

Nc1c(Br)cc(Br)cc1CN[C@H]1CC[C@H](O)CC1
fold change (FC) [17]: 1.3

COc1cc(/C=C/C2OC[C@H](CCN3C[C@@H](O)C(O)[C@H](O)C3)O2)ccc1O (some centres not stated)
fold change (FC) [2]: 1.5 | inhibition [3]: 69% | Activity [18]: inactive | inhibition [4]: 84% | remaining at 96 h [5]: 72% | inhibition [6]: 75% | inhibition [7]: 47% | remaining at 1 h [9]: 87% | fold change (FC) [17]: 1.3 | Activity [19]: 67% | inhibition [13]: 55%

OC[C@H]1CNC[C@@H](O)[C@@H]1O
fold change (FC) [20]: 2

COc1cc(C2OC[C@H](CCN3C[C@@H](O)C(O)[C@H](O)C3)O2)ccc1O (some centres not stated)
Activity [21]: 14% | inhibition [4]: 70% | Activity [22]: inactive | remaining at 96 h [5]: 61% | remaining at 1 h [9]: 82% | Activity [23]: inactive

CCCCOC1OCC(CNC(=S)N2C[C@H](O)[C@@H](O)[C@H](O)[C@H]2CO)O1 (some centres not stated)
fold change (FC) [24]: 1.5 | Activity [22]: inactive

CCCCCCCCCCCCOC1OC[C@H](CCN2C[C@@H](O)C(O)[C@H](O)C2)O1 (some centres not stated)
fold change (FC) [25]: 1.92 | fold change (FC) [26]: 1.24 | fold change (FC) [20]: 2.06 | fold change (FC) [17]: 2.15

O=[N+]([O-])c1ccc(C2OC[C@H](CCN3C[C@@H](O)C(O)[C@H](O)C3)O2)cc1 (some centres not stated)
IC50 [1]: 300 µM | fold change (FC) [2]: 1.6 | inhibition [4]: 77% | Activity [22]: inactive | remaining at 96 h [5]: > 95% | remaining at 1 h [9]: > 95% | Stability [12]: Stable

Cc1cc(C(C)(C)C)c(O)c(C(C)(C)C)c1
inhibition [27]: > 95%

OC1[C@H](O)CN(CC[C@H]2COC(OCc3ccc(-c4ccccc4)cc3)O2)C[C@H]1O (some centres not stated)
fold change (FC) [2]: 1.61 | fold change (FC) [26]: 2.03 | fold change (FC) [17]: 2.11
